Consider 1 molecule from patent publication US20210070748A1, “INHIBITORS OF BRUTONS TYROSINE KINASE” (Pharmacyclics LLC, priority 2015, published 2021).

Common to all, as to format: biochemical
One experiment addresses T1, JAK3 (Homo sapiens, UniProt P52333).
T1 sequence (P52333 1-1124): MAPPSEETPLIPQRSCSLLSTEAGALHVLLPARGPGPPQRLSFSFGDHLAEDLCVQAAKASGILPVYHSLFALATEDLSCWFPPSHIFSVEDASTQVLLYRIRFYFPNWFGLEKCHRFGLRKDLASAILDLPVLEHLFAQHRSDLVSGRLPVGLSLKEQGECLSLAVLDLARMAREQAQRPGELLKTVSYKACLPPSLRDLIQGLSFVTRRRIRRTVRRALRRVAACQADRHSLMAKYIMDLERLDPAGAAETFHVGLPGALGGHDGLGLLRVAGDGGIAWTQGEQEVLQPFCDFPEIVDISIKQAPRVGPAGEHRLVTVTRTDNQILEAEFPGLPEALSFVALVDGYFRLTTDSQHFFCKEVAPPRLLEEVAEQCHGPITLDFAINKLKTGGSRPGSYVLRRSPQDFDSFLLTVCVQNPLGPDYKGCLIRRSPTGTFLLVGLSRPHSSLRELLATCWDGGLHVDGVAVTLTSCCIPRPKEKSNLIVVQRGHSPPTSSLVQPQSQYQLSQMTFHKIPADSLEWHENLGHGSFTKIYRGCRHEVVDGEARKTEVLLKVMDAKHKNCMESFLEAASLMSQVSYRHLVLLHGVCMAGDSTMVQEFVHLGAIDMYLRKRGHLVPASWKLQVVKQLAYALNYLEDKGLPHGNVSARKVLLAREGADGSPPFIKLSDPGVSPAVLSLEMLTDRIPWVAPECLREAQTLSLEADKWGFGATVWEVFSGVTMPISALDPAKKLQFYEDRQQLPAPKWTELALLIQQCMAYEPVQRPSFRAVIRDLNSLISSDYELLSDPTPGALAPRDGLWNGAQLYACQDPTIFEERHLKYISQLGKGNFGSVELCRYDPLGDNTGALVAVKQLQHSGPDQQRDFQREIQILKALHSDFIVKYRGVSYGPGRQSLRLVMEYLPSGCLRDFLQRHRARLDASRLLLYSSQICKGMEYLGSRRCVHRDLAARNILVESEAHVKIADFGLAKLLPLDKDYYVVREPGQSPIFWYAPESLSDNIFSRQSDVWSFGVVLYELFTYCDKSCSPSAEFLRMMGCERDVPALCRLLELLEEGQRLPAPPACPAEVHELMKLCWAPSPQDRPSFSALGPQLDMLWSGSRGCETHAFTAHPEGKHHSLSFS
Description: Inhibition of a panel of kinases, in vitro HotSpot kinase assay: JAK3. To be noted: D-compounds panel data; 1 μM ATP; read-out: IC50 JAK3.

The target in the next experiment is EGFR (Homo sapiens, UniProt P00533). Put plainly: Inhibition of a panel of kinases, in vitro HotSpot kinase assay: EGFR. To be noted: D-compounds panel data; 1 μM ATP. Here is the method:
(§1) The degree of inhibition of a panel of kinases is determined using the in vitro HotSpot kinase assay (purified enzymes, ^33P-ATP, an appropriate substrate and 1 μM ATP).

In a further experiment the target is SRC (Homo sapiens, UniProt P12931). Description: Inhibition of a panel of kinases, in vitro HotSpot kinase assay: SRC. Conditions: D-compounds panel data; 1 μM ATP. The procedure:
as §1

The target in another experiment is T2, BTK-WT (Homo sapiens, UniProt Q06187).
T2 construct: purified from insect cells as a full-length construct containing an N-terminal 6X-His tag; His6 (N); made in house; host or cells: insect cells (baculovirus Sf21 in Method B)
T2 sequence (Q06187 whole entry): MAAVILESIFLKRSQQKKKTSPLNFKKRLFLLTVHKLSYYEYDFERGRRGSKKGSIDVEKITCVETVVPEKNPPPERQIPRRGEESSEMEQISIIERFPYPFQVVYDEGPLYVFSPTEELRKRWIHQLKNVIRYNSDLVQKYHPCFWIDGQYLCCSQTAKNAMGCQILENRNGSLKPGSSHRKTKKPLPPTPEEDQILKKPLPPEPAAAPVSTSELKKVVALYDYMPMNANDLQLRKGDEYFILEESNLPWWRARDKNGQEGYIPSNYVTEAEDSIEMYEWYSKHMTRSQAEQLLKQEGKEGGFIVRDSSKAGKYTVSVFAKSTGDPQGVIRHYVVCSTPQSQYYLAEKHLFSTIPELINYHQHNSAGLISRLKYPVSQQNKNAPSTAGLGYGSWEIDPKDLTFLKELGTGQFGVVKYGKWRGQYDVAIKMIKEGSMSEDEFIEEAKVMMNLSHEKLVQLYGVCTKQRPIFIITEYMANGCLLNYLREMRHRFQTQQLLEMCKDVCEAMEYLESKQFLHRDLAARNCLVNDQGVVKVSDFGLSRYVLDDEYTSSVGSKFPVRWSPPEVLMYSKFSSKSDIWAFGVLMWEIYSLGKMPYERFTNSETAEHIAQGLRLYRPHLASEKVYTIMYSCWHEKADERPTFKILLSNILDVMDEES
Put plainly: Btk in vitro inhibitory activity (one of Method A TR-FRET, Method B electrophoretic mobility shift, Method C radiometric filter binding). Conditions: D-compounds panel data; read-out: IC50 BTK-WT.

SRC, sequence (P12931 whole entry): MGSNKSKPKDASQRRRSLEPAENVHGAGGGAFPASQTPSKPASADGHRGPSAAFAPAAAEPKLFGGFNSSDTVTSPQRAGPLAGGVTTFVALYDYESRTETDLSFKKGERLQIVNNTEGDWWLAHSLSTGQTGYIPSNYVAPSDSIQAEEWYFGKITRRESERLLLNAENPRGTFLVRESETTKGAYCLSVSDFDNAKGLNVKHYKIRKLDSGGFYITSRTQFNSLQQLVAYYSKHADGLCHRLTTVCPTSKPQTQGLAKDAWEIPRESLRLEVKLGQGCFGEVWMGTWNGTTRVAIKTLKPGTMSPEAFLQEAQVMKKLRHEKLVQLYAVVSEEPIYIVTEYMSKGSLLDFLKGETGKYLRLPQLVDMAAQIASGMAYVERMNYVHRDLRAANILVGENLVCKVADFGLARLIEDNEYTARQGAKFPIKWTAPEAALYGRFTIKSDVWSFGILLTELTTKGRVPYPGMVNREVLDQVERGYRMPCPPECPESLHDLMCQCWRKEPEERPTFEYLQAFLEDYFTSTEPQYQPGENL
EGFR, sequence (P00533 25-1210): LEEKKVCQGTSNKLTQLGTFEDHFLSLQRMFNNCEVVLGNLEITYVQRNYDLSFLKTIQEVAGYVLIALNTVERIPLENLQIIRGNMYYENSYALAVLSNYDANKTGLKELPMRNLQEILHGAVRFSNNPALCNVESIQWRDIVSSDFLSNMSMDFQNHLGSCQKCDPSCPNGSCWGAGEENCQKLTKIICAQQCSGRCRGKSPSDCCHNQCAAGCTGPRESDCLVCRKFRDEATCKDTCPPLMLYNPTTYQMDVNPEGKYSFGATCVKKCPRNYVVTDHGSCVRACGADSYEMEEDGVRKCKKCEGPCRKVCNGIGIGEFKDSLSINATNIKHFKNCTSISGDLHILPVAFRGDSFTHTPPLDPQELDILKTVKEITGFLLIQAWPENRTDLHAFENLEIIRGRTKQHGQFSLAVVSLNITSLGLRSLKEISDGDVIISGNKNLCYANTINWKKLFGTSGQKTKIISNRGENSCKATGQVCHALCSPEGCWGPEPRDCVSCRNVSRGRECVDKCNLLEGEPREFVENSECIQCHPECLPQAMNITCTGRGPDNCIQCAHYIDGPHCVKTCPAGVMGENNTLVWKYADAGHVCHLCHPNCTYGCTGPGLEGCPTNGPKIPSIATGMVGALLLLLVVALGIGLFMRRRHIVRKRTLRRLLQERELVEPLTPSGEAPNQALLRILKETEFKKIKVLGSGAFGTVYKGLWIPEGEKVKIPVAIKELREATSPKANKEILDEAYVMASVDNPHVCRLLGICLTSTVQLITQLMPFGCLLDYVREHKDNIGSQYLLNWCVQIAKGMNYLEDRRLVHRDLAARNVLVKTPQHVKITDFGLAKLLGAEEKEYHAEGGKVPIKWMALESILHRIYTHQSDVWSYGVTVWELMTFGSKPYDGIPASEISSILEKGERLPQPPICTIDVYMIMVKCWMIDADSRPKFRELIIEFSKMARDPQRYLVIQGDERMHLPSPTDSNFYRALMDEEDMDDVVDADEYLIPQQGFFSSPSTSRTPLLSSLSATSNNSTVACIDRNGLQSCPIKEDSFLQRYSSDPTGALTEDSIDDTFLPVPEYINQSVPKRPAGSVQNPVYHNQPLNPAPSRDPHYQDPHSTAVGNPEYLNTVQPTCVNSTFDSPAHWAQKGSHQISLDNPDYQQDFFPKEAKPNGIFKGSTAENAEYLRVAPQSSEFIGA

Consider `C[C@@H]1[C@H](NC(=O)c2ccc(C3CC3)cc2F)CCCN1c1cnc(C(N)=O)c(Nc2ccc(CN3CCN(C)CC3)cc2)n1` [Example D-113, 5-[(2R,3R)-3-(4-cyclopropyl-2-fluorobenzamido)-2-methylpiperidin-1-yl]-3-({4-[(4-methylpiperazin-1-yl)methyl]phenyl}amino)pyrazine-2-carboxamide], for which the IC50 was 100 to 1000 nM on JAK3, 100 to 1000 nM against EGFR, 100 to 1000 nM against SRC and not above 10 nM at BTK-WT.

A word on the IC50: it is the midpoint of a concentration-inhibition curve.
